Activity calls are given as the source filed them. The calls are words filed in the database; no cut-off is given here.
Key:
[1] = system: Proteasome; assay: Inhibition of human proteasome trypsin-like activity using Boc-LRR-AMC as substrate measured for 30 mins in presence of MG132 by fluorescence based assay; assay type: subcellular; conditions: dose 10-50 µM
[2] = system: Proteasome; assay: Inhibition of human proteasome chymotrypsin-like activity using suc-LLVY-AMC as fluorogenic substrate measured for 30 mins in presence of MG132 by fluorescence based assay; assay type: subcellular; conditions: dose 10-50 µM
[3] = system: A549; assay: Cytotoxicity against human A549 cells assessed as reduction in cell viability up to 200 uM measured for 9 hrs by WST-8 assay; assay type: functional, cell-based
[4] = system: Proteasome; assay: Inhibition of proteasome caspase-like activity in human A549 cells at 25 uM using ZLLE-AMC as fluorogenic substrate preincubated for 15 mins followed by substrate addition and measured after 6 mins by fluorometer analysis; assay type: subcellular
[5] = system: Proteasome; assay: Inhibition of proteasome caspase-like activity in human A549 cells assessed as LC3 lipidation at 25 to 100 uM measured for 12 hrs in presence of MG132; conditions: dose 25-100 µM
[6] = system: Proteasome; assay: Inhibition of proteasome caspase-like activity in human A549 cells assessed as cleaved PARP level at 25 to 100 uM measured for 12 hrs in presence of MG132; conditions: dose 25-100 µM
[7] = system: Proteasome; assay: Inhibition of proteasome caspase-like activity in human A549 cells assessed as increase in caspase-3 level at 25 to 100 uM measured for 12 hrs in presence of MG132; assay type: subcellular; conditions: dose 25-100 µM

inhibition [1] | inhibition [2] | inhibition [4] | inhibition [5] | inhibition [6] | inhibition [7] | Structure (SMILES) | Activity [3]
Dose-Dependent Effect | Dose-Dependent Effect | Active | Active | Active | Active | CCCC(=O)N[C@@H](CCCNC(N)=O)C(=O)N[C@@H]1C(=O)N[C@@H](CC[S+](C)[O-])C(=O)N[C@H]2CC[C@@H](O)N(C2=O)[C@@H](Cc2ccccc2)C(=O)N(C)[C@@H](Cc2ccc(O)cc2)C(=O)N[C@@H](C(C)C)C(=O)O[C@@H]1C (some centres undefined) | Active
Dose-Dependent Effect | Dose-Dependent Effect | Active | Active | Active | Active | CC(C)CC(=O)N[C@@H](CCCNC(N)=O)C(=O)N[C@@H]1C(=O)N[C@@H](CC[S+](C)[O-])C(=O)N[C@H]2CC[C@@H](O)N(C2=O)[C@@H](Cc2ccccc2)C(=O)N(C)[C@@H](Cc2ccc(O)cc2)C(=O)N[C@@H](C(C)C)C(=O)O[C@@H]1C (some centres undefined) | Active
